In paper PMC9671962 (Communications Biology, 2022):
Several values for one entry are separate records, joined by “and”; a condition that tells them apart may be missing. Equal values may be shown once.

How the values were obtained:
[1] = tested on: high-risk neuroblastoma patient-derived xenograft (PDX) mouse models; assay: Pre-clinical efficacy study in 11 neuroblastoma PDX mouse models (grouped analysis); assay type: in vivo
Experimental: (§1) Patient demographics and genetic characteristics are listed in (Supplementary Tables 1, 2)[17]. The maximum tolerated dose (MTD) was determined to be 36 MBq/kg administered by intra-peritoneal injection twice weekly for a total of 4 dose fractions and this fractionated regimen was used in all studies (Supplementary Fig. 1)[18],[19]. […] Nine of 11 PDX models were MYCN amplified (Fig. 1b), which is a hallmark of high-risk neuroblastoma. Tumor response was measured as the maximum percent decrease in tumor volume after treatment and event-free survival (EFS) was measured by the area over the curve method with tumor events pre-defined by tumor growth exceeding 2 cm[3],[18].
(§2) The use of 2 mice per arm was based on the previously reported statistical analysis. PDX tumors were implanted into the right flank of 5 to 6-weeks old female mice weighing about 20–25 grams. […] Two additional dose levels of 12, and 24 MBq/kg/fraction were assessed in a subset of models and were administered as stated above. In two models treated at the 24 MBq/kg/fraction dose level we re-challenged tumor response at the time of tumor progression with an additional 4 dose fractions at 24 MBq/kg/fraction given twice weekly. Doses were prepared in 500 µL total volume. An equal volume of saline was used for the vehicle group. Tumors were measured using a digital caliper at the initiation of the study and two times per week during the treatment period. Tumor volumes were calculated as volume = ([…]∗0.5236)/1000. Weights were obtained twice weekly and mice were monitored daily for signs of toxicity. […] Tumor response was assessed by best response defined as greatest reduction in tumor volume following the last dose and is presented as percent change in tumor volume. Event-free survival was determined by area over the curve method that calculates the time to tumor event, which was defined as tumors reaching or exceeding a size ≥ 2 cm^3.
(§3) Animal studies were performed in female mice due to the lack of sex-related differences for [^211At]PTT tolerability from initial dose response studies performed in female and male mice. Female mice were chosen due to their underlying behavior towards other study subjects that reduced nonstudy-related causes for decreased wellness. Pre-clinical efficacy studies were performed through “single mouse testing” to more closely recapitulate a clinical trial. […] Number size for treatment groups was determined by model tumor growth reproducibility, which was previously shown to have less than 5% normal variation with at least two animals. Statistical tests for tumor response and event-free survival (EFS) were performed as a grouped analysis that included all tumor models treated at each respective dose level (n = 2 per model per dose level). Statistical differences between treatment groups for tumor response was performed by paired-model T-test that compared reduction in tumor volume for the 36 MBq/kg dose level vs. 24 MBq/kg or 12 MBq/kg. Event free survival was measured by area over the curve method to quantify time to event, which was set as tumor growth exceeding 2 cm[3],[19]. Differences in EFS were tested across all treated models for each respective dose level, and against untreated controls, by paired-model ANOVA analysis. Associations of drug target expression and response were performed by linear regression analysis of EFS and PARP1 mRNA expression. Genetic signatures were visually presented as a function of EFS and no statistical tests were applied. Blood and marrow toxicity studies were performed with n = 5 sample sizes and powered to detect >20% differences between untreated controls and treated animals. Results were tested for significance by one-way ANOVA comparison from untreated controls. Marrow colony formation assays were performed in replicates of 2 for each mouse subject, dependent on marrow isolation, and all replicates are included in final analyses. […]

COG-N-426x-FELIX = assay: Pre-clinical efficacy study, COG-N-426x-FELIX PDX; assay type: in vivo, mouse; details: for Tumor Volume: COG-N-426x-FELIX tumor re-challenge (24 MBq/kg/fraction x 4); for EFS by AOC method / Tumor response (% growth from study initiation at ~ 200 mm3): single mouse
Experimental: as §1, §2, §3

COG-N-519x = assay: Pre-clinical efficacy study, COG-N-519x PDX; assay type: in vivo; details: single mouse
Experimental: as §1, §2, §3

COG-N-471x = assay: Pre-clinical efficacy study, COG-N-471x PDX; assay type: in vivo; details: 36 MBq/kg/fraction x 4 fractions, single mouse
Experimental: as §1
(§4) The use of 2 mice per arm was based on the previously reported statistical analysis. […] Two additional dose levels of 12, and 24 MBq/kg/fraction were assessed in a subset of models and were administered as stated above. […] Tumors were measured using a digital caliper at the initiation of the study and two times per week during the treatment period. Tumor volumes were calculated as volume = ((diameter^1/2 + diameter^2/2)^3∗0.5236)/1000. Weights were obtained twice weekly and mice were monitored daily for signs of toxicity. […] Tumor response was assessed by best response defined as greatest reduction in tumor volume following the last dose and is presented as percent change in tumor volume. […]

NB-SDx = assay: Pre-clinical efficacy study, NB-SDx PDX; assay type: in vivo; details: single mouse
Experimental: as §1, §2
Animal studies were performed in female mice due to the lack of sex-related differences for [^211At]PTT tolerability from initial dose response studies performed in female and male mice. Female mice were chosen due to their underlying behavior towards other study subjects that reduced nonstudy-related causes for decreased wellness. Pre-clinical efficacy studies were performed through “single mouse testing” to more closely recapitulate a clinical trial. […] Number size for treatment groups was determined by model tumor growth reproducibility, which was previously shown to have less than 5% normal variation with at least two animals. […] Event free survival was measured by area over the curve method to quantify time to event, which was set as tumor growth exceeding 2 cm[3],[19]. […]

COG-N-440x = assay: Pre-clinical efficacy study, COG-N-440x PDX; assay type: in vivo; details: single mouse
Experimental: as §1, §2, §3

COG-N-421x = assay: Pre-clinical efficacy study, COG-N-421x PDX; assay type: in vivo; details: 36 MBq/kg/fraction x 4 fractions, single mouse
Experimental: as §1, §4

[2] = cited from earlier work
[3] = COG-N-426x-FELIX, 24 MBq/kg/fraction x 4 fractions
[4] = COG-N-426x-FELIX, 36 MBq/kg/fraction x 4 fractions
[5] = 12 MBq/kg/fraction x 4 fractions
[6] = 24 MBq/kg/fraction x 4 fractions
[7] = 36 MBq/kg/fraction x 4 fractions

O=C1NCCn2c(-c3ccc([211At])cc3)nc3cccc1c32 [[^211At]PTT, Astatine-211-parthanatine]
median EFS ([1]; 12 MBq/kg dose level): 23 days
mouse tumors showing progressing disease after treatment ([1]; 12 MBq/kg dose level (COG-N-415x n = 1, COG-N-453x n = 1)): two
average decrease in tumor volume ([1]; 12 MBq/kg, n = 8, 4 PDX models): 27.15 ± 42.2%
median EFS ([1]; 24 MBq/kg dose level): 46 days
reduction in tumor volume after therapy re-challenge ([1]; 24 MBq/kg re-challenge, COG-N-426x-Felix and NB-EBC1x, n = 2): 100%
average decrease in tumor volume ([1]; 24 MBq/kg, n = 14, 7 PDX models): 92.6 ± 8.1%
average decrease in tumor volume ([1]; 36 MBq/kg (MTD), n = 22, 11 PDX models): 98.4 ± 3.3%
median event free survival (EFS) ([1]; 36 MBq/kg/fraction x4 (MTD)): 74 days
mice with no measurable tumor/disease at end of study ([1]; MTD, 6/20 mice, >95 days (b1), >90 days): 30%
complete tumor response, share of tumors ([1]; MTD, 18 of 22 tumors): 81.8%
Tumor Volume (COG-N-426x-FELIX; week 0): 0.25 cm3
Tumor Volume (COG-N-426x-FELIX; week 0.4): 0.2 cm3
Tumor Volume (COG-N-426x-FELIX; week 0.9): 0.05 cm3
Tumor Volume (COG-N-426x-FELIX; week 1.3): 0.08 cm3
Tumor Volume (COG-N-426x-FELIX; week 1.9): 0.01 cm3
Tumor Volume (COG-N-426x-FELIX; week 2.3): 0.01 cm3
Tumor Volume (COG-N-426x-FELIX; week 2.9): 0 cm3
Tumor Volume (COG-N-426x-FELIX; week 3.4): 0.01 cm3
Tumor Volume (COG-N-426x-FELIX; week 3.9): 0 cm3
Tumor Volume (COG-N-426x-FELIX; week 4.4): 0 cm3
Tumor Volume (COG-N-426x-FELIX; week 4.9): 0 cm3
Tumor Volume (COG-N-426x-FELIX; week 5.3): 0 cm3
Tumor Volume (COG-N-426x-FELIX; week 5.9): 0 cm3
Tumor Volume (COG-N-426x-FELIX; week 6.3): 0.02 cm3
Tumor Volume (COG-N-426x-FELIX; week 6.9): 0.19 cm3
Tumor Volume (COG-N-426x-FELIX; week 7.3): 0.13 cm3
Tumor Volume (COG-N-426x-FELIX; week 7.9): 0.03 cm3
Tumor Volume (COG-N-426x-FELIX; week 8.3): 0.02 cm3
Tumor Volume (COG-N-426x-FELIX; week 8.9): 0 cm3
Tumor Volume (COG-N-426x-FELIX; week 9.3): 0 cm3
Tumor Volume (COG-N-426x-FELIX; week 9.9): 0 cm3
Tumor Volume (COG-N-426x-FELIX; week 10.3): 0 cm3
Tumor Volume (COG-N-426x-FELIX; week 10.9): 0 cm3
Tumor Volume (COG-N-426x-FELIX; week 11.3): 0 cm3
Tumor Volume (COG-N-426x-FELIX; week 11.9): 0 cm3
Tumor Volume (COG-N-426x-FELIX; week 12.3): 0 cm3
Tumor Volume (COG-N-426x-FELIX; week 12.9): 0 cm3
Tumor Volume (COG-N-426x-FELIX; week 13.3): 0 cm3
Tumor Volume (COG-N-426x-FELIX; week 13.9): 0 cm3
Tumor Volume (COG-N-426x-FELIX; week 14.3): 0 cm3
Tumor Volume (COG-N-426x-FELIX; week 14.9): 0 cm3
EFS1 (initial treatment) (COG-N-426x-FELIX; COG-N-426x-FELIX, 24 MBq/kg/fraction x 4, re-challenged mouse n = 1): 49 days and 49.5 days
EFS by AOC method (COG-N-426x-FELIX; [3]): 103. 9 Days
Tumor response (% growth from study initiation at ~ 200 mm3) (COG-N-426x-FELIX; [3]): -100%
EFS by AOC method (COG-N-426x-FELIX; [4]): 104. 1 Days and 104.134 Days and 104.127 Days
Tumor response (% growth from study initiation at ~ 200 mm3) (COG-N-426x-FELIX; [4]): -100%
EFS2 (re-challenge treatment) (COG-N-426x-FELIX; COG-N-426x-FELIX, re-challenge 24 MBq/kg/fraction x 4 at tumor progression, no measurable disease): 59 days
EFS by AOC method (COG-N-519x; [5]): 22.7688 days and 33.292 days
Tumor response (% growth from study initiation at ~ 200 mm3) (COG-N-519x; [5]): -46.1538% and -36.8421%
EFS by AOC method (COG-N-519x; [6]): 28.2857 days and 42.6471 days
Tumor response (% growth from study initiation at ~ 200 mm3) (COG-N-519x; [6]): -83.871% and -100%
EFS by AOC method (COG-N-519x; [7]): 82.4 Days and 100. 5 Days and 82.4108 Days and 100.511 Days
Tumor response (% growth from study initiation at ~ 200 mm3) (COG-N-519x; [7]): -100%
EFS by AOC method (COG-N-471x): 83.4773 days and 64.9075 days
Tumor response (% growth from study initiation at ~ 200 mm3) (COG-N-471x): -100%
EFS by AOC method (NB-SDx; [6]): 44.1 days and 46.5 days and 44.0589 days and 46.4742 days
Tumor response (% growth from study initiation at ~ 200 mm3) (NB-SDx; [6]): -80.9524% and -80%
EFS by AOC method (NB-SDx; [7]): 59.408 days and 51.1551 days
Tumor response (% growth from study initiation at ~ 200 mm3) (NB-SDx; [7]): -96.9697% and -85.7143%
EFS by AOC method (COG-N-440x; [5]): 28.3679 days and 26.6227 days
Tumor response (% growth from study initiation at ~ 200 mm3) (COG-N-440x; [5]): -72.727% and -75.758%
EFS by AOC method (COG-N-440x; [6]): 50.2168 days and 42.5399 days
Tumor response (% growth from study initiation at ~ 200 mm3) (COG-N-440x; [6]): -95.833% and -100%
EFS by AOC method (COG-N-440x; [7]): 78.8444 days and 65.1924 days
Tumor response (% growth from study initiation at ~ 200 mm3) (COG-N-440x; [7]): -100%
EFS by AOC method (COG-N-421x): 61.4391 days and 76.0056 days
Tumor response (% growth from study initiation at ~ 200 mm3) (COG-N-421x): -100%
fold more cytotoxic than the non-radioactive PARP inhibitor analog (KX1) [2]: ~1 billion
